Experimental data reported in patent US11439622B2 (OXFORD UNIVERSITY INNOVATION LIMITED, priority 2015, dated 2022).
Each block holds one molecule with its values, some of them ahead of it.

Tests used:
[1] = target: VIM-2 (Veronese metallo-β-lactamase-2) (Escherichia coli, UniProt Q5U7L7); test: Enzyme inhibition assay, VIM-2; assay type: biochemical; settings: for IC50: read-out: pIC50 VIM-2 (converted)
Experimental: (§1) The biological activity of the compounds of the present invention was tested using standard assay protocols.^7 The following representative enzymes NDM-1 (New Delhi metallo-β-lactamase-1), IMP-1 (Imipenemase-1) and VIM-2 (Veronese metallo-β-lactamase-2) were selected from different clinically relevant B1 metallo-β-lactamases.

IMP-1 (Imipenemase-1) = IMP-1 (Imipenemase-1) (Serratia marcescens, UniProt P52699); test: Enzyme inhibition assay, IMP-1; assay type: biochemical; settings: for IC50: read-out: pIC50 IMP-1 (converted)
Sequence of IMP-1 (Imipenemase-1) (P52699 19-246, looked up, species assumed): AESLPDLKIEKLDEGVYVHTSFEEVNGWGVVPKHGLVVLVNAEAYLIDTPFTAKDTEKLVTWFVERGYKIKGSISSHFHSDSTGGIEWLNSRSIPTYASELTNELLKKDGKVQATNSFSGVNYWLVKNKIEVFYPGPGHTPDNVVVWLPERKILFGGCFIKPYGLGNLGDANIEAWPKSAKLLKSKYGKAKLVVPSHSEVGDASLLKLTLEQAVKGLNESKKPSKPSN
Experimental: as §1

[2] = target: NDM-1 (New Delhi metallo-β-lactamase-1) (Klebsiella pneumoniae, UniProt C7C422); test: Enzyme inhibition assay, NDM-1; assay type: biochemical; settings: for IC50: read-out: pIC50 NDM-1 (converted)
Sequence of NDM-1 (New Delhi metallo-β-lactamase-1) (C7C422 29-270, looked up, species assumed): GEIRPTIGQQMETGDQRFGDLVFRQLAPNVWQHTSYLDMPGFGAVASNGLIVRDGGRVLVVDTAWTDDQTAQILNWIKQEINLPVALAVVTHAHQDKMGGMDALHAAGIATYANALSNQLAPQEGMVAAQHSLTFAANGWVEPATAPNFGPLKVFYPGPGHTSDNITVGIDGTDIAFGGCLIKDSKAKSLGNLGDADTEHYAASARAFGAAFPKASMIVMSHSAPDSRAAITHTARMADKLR
Experimental: as §1

E. coli IR60 = test: Meropenem MIC, CLSI broth microdilution; assay type: cell-based; settings: inhibitor 10 μg/ml
Experimental: (§2) CLSI, Wayne, Pa.) in the absence of each inhibitor or in its presence at the concentration stated. In each case the inhibitor solution was added to broth at 0.1% v/v to achieve the required final concentration; DMSO was used to dissolve inhibitors.
(§3) For initial evaluations of the in vitro cell based activity of indole carboxylates we used well characterized bacterial strains (e.g. K. pneumoniae 5055; E. coli ATCC 25713) transformed with broad host range plasmids (e.g. pSU18 and derivatives) encoding few metallo-β-lactamases produced using their physiological (integron) promoters. We also tested a clinical strain, IR60 in the initial studies.^8
IR60 is a clinically strain original from India.^8 IR60 is also a multiresistant clinical strain.

E. coli 25922 (control) = test: Meropenem MIC, CLSI broth microdilution; assay type: cell-based; settings: inhibitor 10 μg/ml
Experimental: as §2, §3

[3] = tested on: K. pneumoniae 5055 (control); test: Meropenem MIC, CLSI broth microdilution; assay type: cell-based; settings: for Meropenem MIC in presence of inhibitor: inhibitor 10 μg/ml
Experimental: as §2, §3

[4] = tested on: K. pneumoniae 5055 + NDM-1; test: Meropenem MIC, CLSI broth microdilution; assay type: cell-based; settings: inhibitor 10 μg/ml
Experimental: as §2, §3

E. coli EC10 NDM-1 = test: Meropenem MIC, clinically derived strains; assay type: cell-based; settings: inhibitor 10 μg/ml
Experimental: as §2

K. pneumoniae 5055 IMP-1 = test: Meropenem MIC, clinically derived strains; assay type: cell-based; settings: for Meropenem MIC in presence of inhibitor: inhibitor 10 μg/ml
Experimental: as §2
(§4) The results shown in Table 2 reveal that compounds of formula (I) are active in cells, including clinically relevant bacterial strains. Further studies were carried out to determine if compound of formula (I) potentiates BLA activity in clinically derived strains containing IMP-4, […] or NDM-1, which are the most commonly observed MBLs in clinical isolates.

K. pneumoniae A34 VIM-4 = test: Meropenem MIC, clinically derived strains; assay type: cell-based; settings: for Meropenem MIC in presence of inhibitor: inhibitor 10 μg/ml
Experimental: as §2, §4

K. pneumoniae B12 IMP-4 = test: Meropenem MIC, clinically derived strains; assay type: cell-based; settings: for Meropenem MIC in presence of inhibitor: inhibitor 10 μg/ml
Experimental: as §2, §4

K. pneumoniae B19 IMP-4 = test: Meropenem MIC, clinically derived strains; assay type: cell-based; settings: for Meropenem MIC in presence of inhibitor: inhibitor 10 μg/ml
Experimental: as §2, §4

K. pneumoniae IR16 NDM-1 = test: Meropenem MIC, clinically derived strains; assay type: cell-based; settings: for Meropenem MIC in presence of inhibitor: inhibitor 10 μg/ml
Experimental: as §2, §4

[5] = tested on: K. pneumonia strain containing most clinically significant MBLs; test: Screening against K. pneumonia strain containing MBLs, overall statement; assay type: cell-based; settings: Table 4
Experimental: as §2

Compound: Cc1cccc2c(-c3ccc(S(N)(=O)=O)cc3)c(C(=O)O)[nH]c12 [Example 6, 7-methyl-3-(4-sulfamoylphenyl)-1H-indole-2-carboxylic acid]
IC50 [1]: 316 nM
IC50 (IMP-1 (Imipenemase-1)): 10000 nM
IC50 [2]: 15.8 nM
Meropenem MIC in presence of inhibitor (E. coli IR60): < 0.25 µg/mL
Meropenem MIC in presence of inhibitor (E. coli 25922 (control)): < 0.25 µg/mL
Meropenem MIC in presence of inhibitor [3]: < 0.25 µg/mL
Meropenem MIC in presence of inhibitor [4]: 1 µg/mL
Meropenem MIC in presence of inhibitor (E. coli EC10 NDM-1): 8 µg/mL
Meropenem MIC in presence of inhibitor (K. pneumoniae 5055 IMP-1): 8 µg/mL
Meropenem MIC in presence of inhibitor (K. pneumoniae A34 VIM-4): 16 µg/mL
Meropenem MIC in presence of inhibitor (K. pneumoniae B12 IMP-4): 16 µg/mL
Meropenem MIC in presence of inhibitor (K. pneumoniae B19 IMP-4): 8 µg/mL
Meropenem MIC in presence of inhibitor (K. pneumoniae IR16 NDM-1): 2 µg/mL

Compound: Cc1cccc2c(-c3ccc(S(C)(=O)=O)cc3)c(C(=O)O)[nH]c12 [Example 12, 7-methyl-3-(4-(methylsulfonyl)phenyl)-1H-indole-2-carboxylic acid]
IC50 [1]: 316 nM
IC50 (IMP-1 (Imipenemase-1)): 12600 nM
IC50 [2]: 12.6 nM
Meropenem MIC in presence of inhibitor (E. coli IR60): < 0.5 µg/mL
Meropenem MIC in presence of inhibitor (E. coli 25922 (control)): < 0.25 µg/mL
Meropenem MIC in presence of inhibitor [3]: < 0.25 µg/mL
Meropenem MIC in presence of inhibitor [4]: 8 µg/mL
Meropenem MIC in presence of inhibitor (E. coli EC10 NDM-1): 8 µg/mL
Meropenem MIC in presence of inhibitor (K. pneumoniae 5055 IMP-1): 8 µg/mL
Meropenem MIC in presence of inhibitor (K. pneumoniae A34 VIM-4): 16 µg/mL
Meropenem MIC in presence of inhibitor (K. pneumoniae B12 IMP-4): 8 µg/mL
Meropenem MIC in presence of inhibitor (K. pneumoniae B19 IMP-4): 8 µg/mL
Meropenem MIC in presence of inhibitor (K. pneumoniae IR16 NDM-1): 1 µg/mL

Compound: CC(C)c1cccc2c(-c3ccc(F)cc3)c(C(=O)O)[nH]c12 [Example 53, 3-(4-fluorophenyl)-7-isopropyl-1H-indole-2-carboxylic acid]
IC50 [1]: 31.6 nM
IC50 (IMP-1 (Imipenemase-1)): 501 nM
IC50 [2]: 12.6 nM
Meropenem MIC in presence of inhibitor (E. coli IR60): < 0.25 µg/mL
Meropenem MIC in presence of inhibitor (E. coli 25922 (control)): < 0.25 µg/mL
Meropenem MIC in presence of inhibitor [3]: < 0.25 µg/mL
Meropenem MIC in presence of inhibitor [4]: 4 µg/mL
Meropenem MIC in presence of inhibitor (E. coli EC10 NDM-1): 1 µg/mL
Meropenem MIC in presence of inhibitor (K. pneumoniae 5055 IMP-1): 2 µg/mL
Meropenem MIC in presence of inhibitor (K. pneumoniae A34 VIM-4): 4 µg/mL
Meropenem MIC in presence of inhibitor (K. pneumoniae B12 IMP-4): 2 µg/mL
Meropenem MIC in presence of inhibitor (K. pneumoniae B19 IMP-4): 1 µg/mL
Meropenem MIC in presence of inhibitor (K. pneumoniae IR16 NDM-1): 1 µg/mL

IC50 [1]: 3.98 nM
IC50 (IMP-1 (Imipenemase-1)): 15.8 nM
IC50 [2]: 7.94 nM
Compound: CC(C)c1cccc2c(-c3cc(Cl)cc(Cl)c3)c(C(=O)O)[nH]c12 [Example 76, 3-(3,5-dichlorophenyl)-7-isopropyl-1H-indole-2-carboxylic acid]
activity against all the MBLs [5]: good activity

IC50 [1]: 200 nM
IC50 (IMP-1 (Imipenemase-1)): > 100000 nM
IC50 [2]: 1260 nM
Compound: Cc1noc(C)c1-c1c(C(=O)O)[nH]c2c(C)cccc12 [Example 117, 3-(3,5-dimethylisoxazol-4-yl)-7-methyl-1H-indole-2-carboxylic acid]

IC50 [1]: 15800 nM
IC50 (IMP-1 (Imipenemase-1)): 79400 nM
IC50 [2]: 2000 nM
Compound: Cc1ccc2c(-c3ccc(F)cc3)c(C(=O)O)[nH]c2c1 [Example 119, 3-(4-fluorophenyl)-6-methyl-1H-indole-2-carboxylic acid]

IC50 [1]: 31600 nM
IC50 (IMP-1 (Imipenemase-1)): > 100000 nM
IC50 [2]: > 20000 nM
Compound: Cc1cccc2c1cc(C(=O)O)n2-c1ccc(F)cc1 [Example 120, 1-(4-fluorophenyl)-4-methyl-1H-indole-2-carboxylic acid]

pIC50 VIM-2 [1]: N.I.
pIC50 IMP-1 (IMP-1 (Imipenemase-1)): N.I.
pIC50 NDM-1 [2]: N.I.
Compound: CC(C)NC(=O)c1[nH]c2c(C(C)C)cccc2c1-c1ccc(S(=O)(=O)N(C)C)cc1 [Example 123, 3-(4-(N,N-dimethylsulfamoyl)phenyl)-N,7-diisopropyl-1H-indole-2-carboxamide]

pIC50 VIM-2 [1]: N.I.
pIC50 IMP-1 (IMP-1 (Imipenemase-1)): N.I.
pIC50 NDM-1 [2]: N.I.
Compound: CC(C)c1cccc2c(-c3ccc(S(=O)(=O)N(C)C)cc3)c(C(=O)Nc3nccs3)[nH]c12 [Example 124, 3-(4-(N,N-dimethylsulfamoyl)phenyl)-7-isopropyl-N-(thiazol-2-yl)-1H-indole-2-carboxamide]

pIC50 VIM-2 [1]: N.I.
pIC50 IMP-1 (IMP-1 (Imipenemase-1)): N.I.
IC50 [2]: 398 nM
Compound: CC(C)c1cccc2c(-c3ccc(S(=O)(=O)N(C)C)cc3)c(C(=O)Nc3ccccc3)[nH]c12 [Example 127, 3-(4-(N,N-dimethylsulfamoyl)phenyl)-7-isopropyl-N-phenyl-1H-indole-2-carboxamide]

Compound: C[C@@H](O)[C@H]1C(=O)N2C(C(=O)O)=C(S[C@@H]3CN[C@H](C(=O)N(C)C)C3)[C@H](C)[C@H]12 [Meropenem, meropenem, reference compound]
Meropenem MICs ([3]; meropenem alone): < 0.25 µg/mL
Meropenem MIC (K. pneumoniae 5055 IMP-1; meropenem alone): 16 µg/mL
Meropenem MIC (K. pneumoniae A34 VIM-4; meropenem alone): 64 µg/mL
Meropenem MIC (K. pneumoniae B12 IMP-4; meropenem alone): 16 µg/mL
Meropenem MIC (K. pneumoniae B19 IMP-4; meropenem alone): 16 µg/mL
Meropenem MIC (K. pneumoniae IR16 NDM-1; meropenem alone): 16 µg/mL
